Experimental data: PMC9715595, “Optimization of the precursor supply for an enhanced FK506 production in Streptomyces tsukubaensis” (Frontiers in Bioengineering and Biotechnology, 2022)

What was measured:
[1] = target: lysine cyclodeaminase PipAf from Actinoplanes friuliensis (Actinoplanes friuliensis); assay: SEC; gel filtration on Superdex 200, 150 mM NaCl, 25 mM HEPES pH 7.4; main peak corresponds to a dimer
[2] = target: T1, PipAf (Pip; LCD from A. friuliensis) (Actinoplanes friuliensis, UniProt U5VYY1); assay: X-ray crystal structure ([…] Å); format: binding; details: co-crystallised with 140 mM lysine and 1 mM NAD+; NADH bound; pH 8.5; active site
T1 construct: gene AFR_18570; full length, N-terminal His-tag (pET30 Ek/LIC), E. coli; monomer 339 residues, ~36 kDa, homodimer
T1 sequence (U5VYY1 1-339): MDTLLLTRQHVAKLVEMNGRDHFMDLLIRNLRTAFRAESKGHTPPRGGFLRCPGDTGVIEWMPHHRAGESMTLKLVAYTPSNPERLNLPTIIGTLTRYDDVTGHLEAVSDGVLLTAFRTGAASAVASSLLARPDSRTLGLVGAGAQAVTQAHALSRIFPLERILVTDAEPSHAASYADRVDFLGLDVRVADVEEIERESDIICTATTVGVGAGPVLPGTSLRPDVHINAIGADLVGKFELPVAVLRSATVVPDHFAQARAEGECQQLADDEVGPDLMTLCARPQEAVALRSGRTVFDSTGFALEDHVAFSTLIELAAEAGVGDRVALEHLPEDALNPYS

[3] = target: T1, PipAf (Pip; LCD from A. friuliensis); assay: X-ray crystal structure ([…] Å); format: binding; details: crystallised with 1 mM NAD+; cofactor modelled as NADH; one NADH per monomer

Molecule “lysine cyclodeaminase PipAf from Actinoplanes friuliensis (enzyme)” has a stoichiometry N [1] of 2.

With `NCCCC[C@H](N)C(=O)O` [lysine] the “X-ray crystal structure (1.4 Å)” value [2] was “Lysine binds in the active site running parallel to the nicotinamide ring”.

`NC(=O)C1=CN([C@@H]2O[C@H](COP(=O)(O)OP(=O)(O)OC[C@H]3O[C@@H](n4cnc5c(N)ncnc54)[C@H](O)[C@@H]3O)[C@@H](O)[C@H]2O)C=CC1` [NADH] was tested, and the “X-ray crystal structure (1.3 Å)” value [3] was “One molecule NADH binds per monomer via a canonical Rossman fold”.
